# Test results reported in patent US20250368987A1, “COMPOSITION COMPRISING TAF10 INHIBITOR FOR PREVENTING OR TREATING COLORECTAL CANCER” (KOREA ADVANCED INSTITUTE OF SCIENCE AND TECHNOLOGY, priority 2021, published 2025).
# How the values were obtained:
# cancer cells = assay: Combined TAF10 inhibition and oxaliplatin: confluence, PI staining, FACS cell death; type: cell-based
# Method: (§1) Infected cells were inoculated in a 96-well plate (6×10^3 cell/well) to measure the cell growth and the cell growth was recorded every 3 hours using IncuCyte ZOOM (Essen Bioscience), and cell confluence was analyzed using IncuCyte ZOOM 2016A software.
# Meanwhile, an increase in the cancer stemness of cancer cells may also cause increased resistance of cancer cells to anticancer agents. Therefore, a colorectal cancer animal model in which TAF10 was inhibited or not was treated with the anticancer agent, oxaliplatin (1 μM concentration) and its therapeutic effect was confirmed.
# In addition, as a result of staining cells by treating a PI solution capable of confirming cell death, it was confirmed that proliferation was suppressed when TAF10 was inhibited, and that the number of dying cells increased when treated with oxaliplatin along with TAF10 inhibition (FIG. 9B).
# In addition, the degree of cell death through PI and 7-AAD was confirmed through FACS. In this regard, Q1 means NECROSIS, Q2 means LATE APOPTOSIS, Q3 means EARLY APOPTOSIS, and Q4 means live cells. The degree of cell death may be determined by increasing the ratio of Q2. As a result, it was confirmed that the ratio of Q2 increased when TAF10 was inhibited and oxaliplatin was combined, so that it was confirmed that cell death increased (FIG. 9C).
# HCT116 [1] = assay: Combined TAF10 inhibition and oxaliplatin in colorectal cancer-inducing animal model; type: in vivo, Nude mice
# Method: First, TAF10 WT (wild type) and TAF10 knockdown (KD) cells were prepared in the same manner as in Experimental Example 1-3 using shRNA consisting of a base sequence represented by SEQ ID NO: 7 in HCT116, which was a colorectal cancer cell line. 2×10^6 of TAF10 WT or TAF10 KD was prepared and subcutaneously injected into Nude mice deficient of an immune system. Tumor occurrence was confirmed every two days, and its size was measured. In addition, in order to confirm the effect of combined treatment with anticancer agents, the colorectal cancer-inducing animal model prepared in the same manner as before was divided into four experimental groups, and after 2 weeks (14 days) when the tumor had formed to some extent, a control group was administered with PBS and in the experimental group, oxaliplatin was injected into the abdominal cavity at a concentration of 10 mg/kg every two days.
# In addition, the combined effect in vivo was confirmed using a colorectal cancer-inducing animal model prepared by subcutaneously injecting HCT116 in which TAF10 was inhibited or HCT116 in which TAF10 was not inhibited. From two weeks after the tumor in each experimental group was formed, WT and KD were divided into two experimental groups. […]
# HCT116 [2] = assay: qRT-PCR gene expression upon TAF10 inhibition; type: cell-based
# HCT116 [3] = assay: Cell cycle by FACS (PI staining); type: cell-based; details: HCT116, FIG. 5B
# Method: The cells were treated with trypsin-EDTA, separated into single cells, washed twice with PBS, and fixed with 70% ethanol for 1 hour at −20° C. After washing again with PBS twice, the cells were treated with 20 μg/ml of RNase A, and flow cytometry analysis was performed through 20 μg/ml of propidium iodide (PI) staining.
# (§2) Through Example, it was confirmed that the TAF10 inhibition suppressed the growth of HCT116, a colorectal cancer cell line. As a result, the expression genes and proteins related with the growth rate and cell growth and the expression of genes and proteins related to cell cycle arrest were confirmed according to TAF10 inhibition (using siRNA) in HT29 and CACO2 colorectal cancer cell lines, which were other colorectal cancer cell lines. In addition, the cell cycle was confirmed according to TAF10 inhibition, and whether there was an increase in senescent cells was confirmed. The senescent cells were confirmed by staining the senescent cells using a senescence b-galactosidase staining kit (Cell signaling).
# HCT116 [4] = assay: Senescence b-galactosidase staining; type: cell-based; details: HCT116, FIG. 5C
# HCT116 [5] = assay: Cell growth (IncuCyte confluence) after siRNA transfection; type: cell-based; details: HCT116, siRNA 30 nM, FIG. 2A
# Method: (§3) Transfection reagents RNAiMAX (Thermo Fisher Scientific) and siRNA (BIONEER Corporation, Daejeon, South Korea) were mixed in an Opti-mem medium at a final concentration of 30 nM. Target cells were cultured with the mixture, and then cells were harvested for RNA extraction after 72 hours of siRNA transfection.
# The used siRNAs siNPM1, siTAF10, and siZNHIT1 were as follows. • (SEQ ID NO: 1) siTAF10-SENSE: GUGAAGAAGCCGCACUACU • (SEQ ID NO: 2) siTAF10-ANTISENSE: AGUAGUGCGGCUUCUUCAC • (SEQ ID NO: 3) siNPM1-SENSE: […] GA • (SEQ ID NO: 4) siNPM1-ANTISENSE: […] UC • (SEQ ID NO: 5) siZNHIT1-SENSE: GAGACUGCCUCAGUUUGAU • (SEQ ID NO: 6) siZNHIT1-ANTISENSE: AUCAAACUGAGGCAGUCUC 1-3. Transfection and Transduction of shRNA
# as §1
# Based on those confirmed in Example 1, NPM1, TAF, or ZNHIT1 of the colorectal cancer cell line HCT116 was inhibited as in Experimental Example 1-2, and its growth ability was confirmed. […] In addition, as a result of confirming overall survival probability when TAF10 is inhibited in The Cancer Genome Atlas (TCGA) as a large-scale cancer database, it was confirmed that the survival probability was increased (see FIG. 2B). […]
# CACO2 = assay: Growth rate of colorectal cancer cell line upon TAF10 inhibition (siRNA); type: cell-based; details: FIG. 4A
# Method: as §3, §1, §2
# HT29 = assay: as above; type: cell-based; details: FIG. 4A
# Method: as §3, §1, §2
# HCT116 [6] = assay: Western blot protein expression upon TAF10 inhibition; type: cell-based
# Method: Cellular proteins were dissolved and extracted on ice in a lysis buffer (20 mM HEPES (pH 7.2), 150 mM NaCl, 0.5% Triton X-100, 10% glycerol, 0.1% SDS) containing 0.1% protease inhibitor and phosphatase inhibitor cocktail (Thermo-scientific, USA). The proteins were separated through protein electrophoresis (10% gel) and transferred to a PVDF membrane. For Western blot, an anti-TAF10 (ab263967) antibody was purchased from Abcam, anti-AKT1 (2938S), anti-phosphoAkt (2965S), anti-phospho B-raf (#2696), anti-MEK1/2. (#9122), anti-phosphoERK1/2 (#9106), anti-STAT3 (#9139), and anti-phosphoSTAT3 (#9131) antibodies were purchased from Cell signaling, and anti-phospho m-TOR (sc-293133), anti-phosphoMEK1/2 (sc-81503), anti-CyclinE1 (sc-247), anti-CDK2 (sc-6248), and anti-VEGF (sc7269) antibodies were purchased and used from Santacruz. A rabbit polyclonal anti-GAPDH antibody was provided and used from the Korea Research Institute of Bioscience and Biotechnology. The expression of each protein band was confirmed using an enhanced chemiluminescence (ECL) solution.
# Through Example, it was confirmed that the TAF10 inhibition suppressed the growth of HCT116, a colorectal cancer cell line. […]
Molecule,effect of TAF10 inhibition on the anticancer effect of oxaliplatin (cancer cells; FIG. 9),"cancer confluence (cancer cells; TAF10 inhibited and oxaliplatin 1 μM, FIG. 9A)","ratio of Q2 (LATE APOPTOSIS), FACS PI and 7-AAD (cancer cells; TAF10 inhibited and oxaliplatin combined, FIG. 9C)","number of dying cells (PI staining) (cancer cells; oxaliplatin along with TAF10 inhibition, FIG. 9B)","tumor size (HCT116 [1]; TAF10 KD HCT116, oxaliplatin 10 mg/kg once every two days, after 44 days, FIG. 9E)","tumor size (tumor volume over time) (HCT116 [1]; TAF10 inhibited and oxaliplatin, FIGS. 9D and 9E)","expression of genes TP53, CDKN1A, and CXCL8 related to cell cycle arrest (HCT116 [2]; FIG. 5A)","expression of genes MKI167, PCNA, and MCM7 related to cell growth (HCT116 [2]; HCT116, FIG. 4B)",cell cycle (HCT116 [3]),number of senescent cells (HCT116 [4]),cell proliferation (HCT116 [5]),growth rate (CACO2),growth rate (HT29),expression of proteins Cyclin E1 and CDK2 related to cell cycle arrest (HCT116 [6]; FIG. 5A),"expression of proteins tAkt1, pAkt, pGSK-3β, m-TOR, pB-raf, tMEK1/2, pMEK1/2, and pERK1/2 (HCT116 [6]; HCT116, FIG. 4B)"
O=C1[O][Pt]2([NH][C@@H]3CCCC[C@H]3[NH]2)[O]C1=O [oxaliplatin],synergistic effect,significantly reduced,increased,increased,significantly reduced,significantly reduced,–,–,–,–,–,–,–,–,–
"siTAF10: siRNA targeting TAF10; sense GUGAAGAAGCCGCACUACU (SEQ ID NO: 1), antisense AGUAGUGCGGCUUCUUCAC (SEQ ID NO: 2) (listed as RNA, chemistry not given here)",–,–,–,–,–,–,increased,reduced,arrested,increased,significantly reduced,reduced,reduced,increased,reduced
